According to ChEMBL document CHEMBL1131783, “Prodrugs of CL316243: a selective beta3-adrenergic receptor agonist for treating obesity and diabetes” (Bioorg Med Chem Lett, 1999):

The compounds below were run against Beta-3 adrenergic receptor (Rattus norvegicus) (UniProt P26255) (assay: Beta-3-adrenergic activity measured by percent response against free fatty acid (FFA) in rat plasma at a dosage of 0.1 mg/kg).
Beta-3 adrenergic receptor (Rattus norvegicus), sequence (P26255 whole entry): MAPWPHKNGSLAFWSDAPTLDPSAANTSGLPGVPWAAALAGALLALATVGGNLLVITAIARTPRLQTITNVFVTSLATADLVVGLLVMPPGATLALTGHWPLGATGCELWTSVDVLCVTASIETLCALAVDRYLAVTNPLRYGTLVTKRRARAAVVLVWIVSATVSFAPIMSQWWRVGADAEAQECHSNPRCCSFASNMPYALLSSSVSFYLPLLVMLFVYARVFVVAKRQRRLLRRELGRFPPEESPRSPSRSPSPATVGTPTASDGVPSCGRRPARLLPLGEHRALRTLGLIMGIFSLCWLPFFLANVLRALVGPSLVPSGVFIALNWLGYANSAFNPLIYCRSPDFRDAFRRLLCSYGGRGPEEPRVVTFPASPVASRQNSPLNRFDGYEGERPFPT
Type: functional, organism-based
Parameters: dose 0.1 mg/kg
For C[C@H](Cc1ccc2c(c1)OC(C(=O)OCC1CCCO1)(C(=O)OCC1CCCO1)O2)NC[C@H](O)c1cccc(Cl)c1 (stereo not given in full), the Response was 24%. C[C@H](Cc1ccc2c(c1)OC(C(=O)OC/C=C/c1ccccc1)(C(=O)OC/C=C/c1ccccc1)O2)NC[C@H](O)c1cccc(Cl)c1 showed a Response of 58%. C[C@H](Cc1ccc2c(c1)OC(C(=O)O)(C(=O)OCCOC(C)(C)C)O2)NC[C@H](O)c1cccc(Cl)c1 (stereo not given in full) was tested, and the Response was 20%. With C[C@H](Cc1ccc2c(c1)OC(C(=O)OCC1CC1)(C(=O)OCC1CC1)O2)NC[C@H](O)c1cccc(Cl)c1 the Response was 99%. CCCCCCCCOC(=O)C1(C(=O)O)Oc2ccc(C[C@@H](C)NC[C@H](O)c3cccc(Cl)c3)cc2O1 (stereo not given in full) showed a Response of 45%. Work on C[C@H](Cc1ccc2c(c1)OC(C(=O)OCCCCCc1ccccc1)(C(=O)OCCCCCc1ccccc1)O2)NC[C@H](O)c1cccc(Cl)c1 yielded a Response of 93%. C[C@H](Cc1ccc2c(c1)OC(C(=O)O)(C(=O)OCC1CCCCC1)O2)NC[C@H](O)c1cccc(Cl)c1 (stereo not given in full) showed a Response of 47%. Compound C[C@H](Cc1ccc2c(c1)OC(C(=O)OC1CCCC1)(C(=O)OC1CCCC1)O2)NC[C@H](O)c1cccc(Cl)c1 has a Response of 118%. Work on C[C@H](Cc1ccc2c(c1)OC(C(=O)O)(C(=O)OCC1CC1)O2)NC[C@H](O)c1cccc(Cl)c1 (stereo not given in full) yielded a Response of 37%. In the case of CC(=O)OCOC(=O)C1(C(=O)OCOC(C)=O)Oc2ccc(C[C@@H](C)NC[C@H](O)c3cccc(Cl)c3)cc2O1, the Response is reported as 39%. Compound CCCCCCOC(=O)C1(C(=O)O)Oc2ccc(C[C@@H](C)NC[C@H](O)c3cccc(Cl)c3)cc2O1 (stereo not given in full) has a Response of 66%. For CCCCCCC(=O)OCOC(=O)C1(C(=O)OCOC(=O)CCCCCC)Oc2ccc(C[C@@H](C)NC[C@H](O)c3cccc(Cl)c3)cc2O1, the Response was 23%. CCCCCCOC(=O)C1(C(=O)OCCCCCC)Oc2ccc(C[C@@H](C)NC[C@H](O)c3cccc(Cl)c3)cc2O1 showed a Response of 51%. Compound C[C@H](Cc1ccc2c(c1)OC(C(=O)OCCOCc1ccccc1)(C(=O)OCCOCc1ccccc1)O2)NC[C@H](O)c1cccc(Cl)c1 has a Response of 120%. In the case of CCOCCOC(=O)C1(C(=O)O)Oc2ccc(C[C@@H](C)NC[C@H](O)c3cccc(Cl)c3)cc2O1 (stereo not given in full), the Response is reported as 73%. C[C@H](Cc1ccc2c(c1)OC(C(=O)OCCCCc1ccccc1)(C(=O)OCCCCc1ccccc1)O2)NC[C@H](O)c1cccc(Cl)c1 gave a Response of 43%. C[C@H](Cc1ccc2c(c1)OC(C(=O)OCC(C)(C)CO)(C(=O)OCC(C)(C)CO)O2)NC[C@H](O)c1cccc(Cl)c1 showed a Response of 78%. In the case of CC(C)OC(=O)COC(=O)C1(C(=O)OCC(=O)OC(C)C)Oc2ccc(C[C@@H](C)NC[C@H](O)c3cccc(Cl)c3)cc2O1, the Response is reported as 78%. Work on CCOCCOC(=O)C1(C(=O)OCCOCC)Oc2ccc(C[C@@H](C)NC[C@H](O)c3cccc(Cl)c3)cc2O1 yielded a Response of 101%. In the case of CCCCOCCOC(=O)C1(C(=O)OCCOCCCC)Oc2ccc(C[C@@H](C)NC[C@H](O)c3cccc(Cl)c3)cc2O1, the Response is reported as 58%. CC(C)CCC(=O)OCOC(=O)C1(C(=O)OCOC(=O)CCC(C)C)Oc2ccc(C[C@@H](C)NC[C@H](O)c3cccc(Cl)c3)cc2O1 gave a Response of 37%. C[C@H](Cc1ccc2c(c1)OC(C(=O)OC[Si](C)(C)C)(C(=O)OC[Si](C)(C)C)O2)NC[C@H](O)c1cccc(Cl)c1 was tested, and the Response was 73%. With CC(C)CCOC(=O)C1(C(=O)O)Oc2ccc(C[C@@H](C)NC[C@H](O)c3cccc(Cl)c3)cc2O1 (stereo not given in full) the Response was 42%. CCCOC(=O)COC(=O)C1(C(=O)OCC(=O)OCCC)Oc2ccc(C[C@@H](C)NC[C@H](O)c3cccc(Cl)c3)cc2O1 was tested, and the Response was 30%. With C[C@H](Cc1ccc2c(c1)OC(C(=O)OCOC(=O)C(C)(C)C)(C(=O)OCOC(=O)C(C)(C)C)O2)NC[C@H](O)c1cccc(Cl)c1 the Response was 14%. CCC(CC)OC(=O)C1(C(=O)O)Oc2ccc(C[C@@H](C)NC[C@H](O)c3cccc(Cl)c3)cc2O1 (stereo not given in full) was tested, and the Response was 52%. Compound C[C@H](Cc1ccc2c(c1)OC(C(=O)OCC1CCCCO1)(C(=O)OCC1CCCCO1)O2)NC[C@H](O)c1cccc(Cl)c1 (stereo not given in full) has a Response of 11%. CCOC(=O)COC(=O)C1(C(=O)OCC(=O)OCC)Oc2ccc(C[C@@H](C)NC[C@H](O)c3cccc(Cl)c3)cc2O1 gave a Response of 22%. Compound C[C@H](Cc1ccc2c(c1)OC(C(=O)OCC(=O)c1ccccc1)(C(=O)OCC(=O)c1ccccc1)O2)NC[C@H](O)c1cccc(Cl)c1 has a Response of 7%. Work on C[C@H](Cc1ccc2c(c1)OC(C(=O)OCC1(C)CCCCC1)(C(=O)OCC1(C)CCCCC1)O2)NC[C@H](O)c1cccc(Cl)c1 yielded a Response of 84%. C[C@H](Cc1ccc2c(c1)OC(C(=O)OCCOC(C)(C)C)(C(=O)OCCOC(C)(C)C)O2)NC[C@H](O)c1cccc(Cl)c1 gave a Response of 14%. C[C@H](Cc1ccc2c(c1)OC(C(=O)OCCc1cccc(C(F)(F)F)c1)(C(=O)OCCc1cccc(C(F)(F)F)c1)O2)NC[C@H](O)c1cccc(Cl)c1 showed a Response of 28%. In the case of C[C@H](Cc1ccc2c(c1)OC(C(=O)OCCC1CC1)(C(=O)OCCC1CC1)O2)NC[C@H](O)c1cccc(Cl)c1, the Response is reported as 77%. Compound C[C@H](Cc1ccc2c(c1)OC(C(=O)O)(C(=O)OCCC1CC1)O2)NC[C@H](O)c1cccc(Cl)c1 (stereo not given in full) has a Response of 19%. C[C@H](Cc1ccc2c(c1)OC(C(=O)OC1CCCCC1)(C(=O)OC1CCCCC1)O2)NC[C@H](O)c1cccc(Cl)c1 gave a Response of 59%. Work on CCC(=O)OC(C)OC(=O)C1(C(=O)OC(C)OC(=O)CC)Oc2ccc(C[C@@H](C)NC[C@H](O)c3cccc(Cl)c3)cc2O1 (stereo not given in full) yielded a Response of 2%. Work on C[C@H](Cc1ccc2c(c1)OC(C(=O)OCC(C)(C)Cc1ccccc1)(C(=O)OCC(C)(C)Cc1ccccc1)O2)NC[C@H](O)c1cccc(Cl)c1 yielded a Response of 25%. For CC(C)COCCOC(=O)C1(C(=O)OCCOCC(C)C)Oc2ccc(C[C@@H](C)NC[C@H](O)c3cccc(Cl)c3)cc2O1, the Response was 63%. Compound CC(OC(=O)OC1CCCCC1)OC(=O)C1(C(=O)OC(C)OC(=O)OC2CCCCC2)Oc2ccc(C[C@@H](C)NC[C@H](O)c3cccc(Cl)c3)cc2O1 (stereo not given in full) has a Response of 17%. C[C@H](Cc1ccc2c(c1)OC(C(=O)O)(C(=O)OCC[Si](C)(C)C)O2)NC[C@H](O)c1cccc(Cl)c1 (stereo not given in full) showed a Response of 30%. In the case of C[C@H](Cc1ccc2c(c1)OC(C(=O)O)(C(=O)OCC1CCC1)O2)NC[C@H](O)c1cccc(Cl)c1 (stereo not given in full), the Response is reported as 39%. Compound CC(OC(=O)C1(C(=O)OC(C)c2ccccc2)Oc2ccc(C[C@@H](C)NC[C@H](O)c3cccc(Cl)c3)cc2O1)c1ccccc1 (stereo not given in full) has a Response of 78%. Cc1cccc(CCOC(=O)C2(C(=O)OCCc3cccc(C)c3)Oc3ccc(C[C@@H](C)NC[C@H](O)c4cccc(Cl)c4)cc3O2)c1 was tested, and the Response was 39%. For COCCOC(=O)C1(C(=O)O)Oc2ccc(C[C@@H](C)NC[C@H](O)c3cccc(Cl)c3)cc2O1 (stereo not given in full), the Response was 85%. In the case of C[C@H](Cc1ccc2c(c1)OC(C(=O)OCOC(=O)c1ccccc1)(C(=O)OCOC(=O)c1ccccc1)O2)NC[C@H](O)c1cccc(Cl)c1, the Response is reported as 31%. Compound C[C@H](Cc1ccc2c(c1)OC(C(=O)OCC1CCOC1)(C(=O)OCC1CCOC1)O2)NC[C@H](O)c1cccc(Cl)c1 (stereo not given in full) has a Response of 68%. Compound CCOC(=O)C1(C(=O)O)Oc2ccc(C[C@@H](C)NC[C@H](O)c3cccc(Cl)c3)cc2O1 (stereo not given in full) has a Response of 57%. CC(C)C(=O)OCOC(=O)C1(C(=O)OCOC(=O)C(C)C)Oc2ccc(C[C@@H](C)NC[C@H](O)c3cccc(Cl)c3)cc2O1 gave a Response of 26%. Work on CCC(=O)OCOC(=O)C1(C(=O)OCOC(=O)CC)Oc2ccc(C[C@@H](C)NC[C@H](O)c3cccc(Cl)c3)cc2O1 yielded a Response of 10%. CC(C)OC(=O)C1(C(=O)O)Oc2ccc(C[C@@H](C)NC[C@H](O)c3cccc(Cl)c3)cc2O1 (stereo not given in full) showed a Response of 45%. CC(OC(=O)c1ccccc1)OC(=O)C1(C(=O)OC(C)OC(=O)c2ccccc2)Oc2ccc(C[C@@H](C)NC[C@H](O)c3cccc(Cl)c3)cc2O1 (stereo not given in full) showed a Response of 30%. C[C@H](Cc1ccc2c(c1)OC(C(=O)OCCOc1ccccc1)(C(=O)OCCOc1ccccc1)O2)NC[C@H](O)c1cccc(Cl)c1 was tested, and the Response was 2%. For C[C@H](Cc1ccc2c(c1)OC(C(=O)OCC1CCCCC1)(C(=O)OCC1CCCCC1)O2)NC[C@H](O)c1cccc(Cl)c1, the Response was 22%. For C[C@H](Cc1ccc2c(c1)OC(C(=O)O)(C(=O)OC[Si](C)(C)C)O2)NC[C@H](O)c1cccc(Cl)c1 (stereo not given in full), the Response was 30%. C[C@H](Cc1ccc2c(c1)OC(C(=O)O)(C(=O)OCCOCc1ccccc1)O2)NC[C@H](O)c1cccc(Cl)c1 (stereo not given in full) showed a Response of 109%. In the case of CCC(CC)COC(=O)C1(C(=O)OCC(CC)CC)Oc2ccc(C[C@@H](C)NC[C@H](O)c3cccc(Cl)c3)cc2O1, the Response is reported as 86%. In the case of COc1ccc(COC(=O)C2(C(=O)OCc3ccc(OC)cc3)Oc3ccc(C[C@@H](C)NC[C@H](O)c4cccc(Cl)c4)cc3O2)cc1, the Response is reported as 8%. CCC(CC)COC(=O)C1(C(=O)O)Oc2ccc(C[C@@H](C)NC[C@H](O)c3cccc(Cl)c3)cc2O1 (stereo not given in full) was tested, and the Response was 56%. CC(OC(=O)C(C)(C)C)OC(=O)C1(C(=O)OC(C)OC(=O)C(C)(C)C)Oc2ccc(C[C@@H](C)NC[C@H](O)c3cccc(Cl)c3)cc2O1 (stereo not given in full) was tested, and the Response was 23%. With CCCCCCCCOC(=O)C1(C(=O)OCCCCCCCC)Oc2ccc(C[C@@H](C)NC[C@H](O)c3cccc(Cl)c3)cc2O1 the Response was 46%. CC(C)OCCOC(=O)C1(C(=O)OCCOC(C)C)Oc2ccc(C[C@@H](C)NC[C@H](O)c3cccc(Cl)c3)cc2O1 showed a Response of 86%. Work on C[C@H](Cc1ccc2c(c1)OC(C(=O)OCc1cccc(Cl)c1)(C(=O)OCc1cccc(Cl)c1)O2)NC[C@H](O)c1cccc(Cl)c1 yielded a Response of 46%. Compound CCCCOCCOC(=O)C1(C(=O)O)Oc2ccc(C[C@@H](C)NC[C@H](O)c3cccc(Cl)c3)cc2O1 (stereo not given in full) has a Response of 83%. In the case of CCOC(=O)C(C)OC(=O)C1(C(=O)OC(C)C(=O)OCC)Oc2ccc(C[C@@H](C)NC[C@H](O)c3cccc(Cl)c3)cc2O1 (stereo not given in full), the Response is reported as 9%. Work on C[C@H](Cc1ccc2c(c1)OC(C(=O)OCOC(=O)C1CCCCC1)(C(=O)OCOC(=O)C1CCCCC1)O2)NC[C@H](O)c1cccc(Cl)c1 yielded a Response of 19%. In the case of CCC(CC)OC(=O)C1(C(=O)OC(CC)CC)Oc2ccc(C[C@@H](C)NC[C@H](O)c3cccc(Cl)c3)cc2O1, the Response is reported as 63%. Compound COCCOC(=O)C1(C(=O)OCCOC)Oc2ccc(C[C@@H](C)NC[C@H](O)c3cccc(Cl)c3)cc2O1 has a Response of 65%. Work on C[C@H](Cc1ccc2c(c1)OC(C(=O)OCc1ccccc1)(C(=O)OCc1ccccc1)O2)NC[C@H](O)c1cccc(Cl)c1 yielded a Response of 21%. C[C@H](Cc1ccc2c(c1)OC(C(=O)OCCc1ccsc1)(C(=O)OCCc1ccsc1)O2)NC[C@H](O)c1cccc(Cl)c1 showed a Response of 80%. C[C@H](Cc1ccc2c(c1)OC(C(=O)OCCCOCc1ccccc1)(C(=O)OCCCOCc1ccccc1)O2)NC[C@H](O)c1cccc(Cl)c1 showed a Response of 83%.
